According to patent EP0523873A1, “Non-substrate peptide inhibitors of farnesyl protein transferase” (MERCK & CO. INC., priority 1991, dated 1993):
Like-named read-outs stand apart in the source and are kept apart here. Square brackets hold non-standard residues; d marks the D form. Peptide text beside a SMILES is read from it. Phe(4-F) = N[C@@H](Cc1ccc(F)cc1)C(=O)O

Tests used:
[1] = target: farnesyl-protein transferase (bovine brain) (Bos taurus, UniProt P29702+P49355); details: read-out: KM for FPP; 30°C, 50 mM HEPES, pH 7.5, 5 mM MgCl2, 5 mM dithiothreitol
Description: (§1) Polyisoprenylation of Ras- [³H]Farnesyldiphosphate (FPP) (20 Ci/mmol) was purchased from New England Nuclear. Farnesyl-protein transferase activity assays were carried out as 30°C unless noted otherwise. […] After thermally pre-equilibrating the assay mixture in the absence of enzyme, reactions were initiated by the addition of farnesyl-protein transferase and stopped at timed intervals by the addition of 1 M HCl in ethanol (1 mL). The quenched reactions were allowed to stand for 15 minutes (to complete the precipitation process). After adding 2 mL of 100% ethanol, the reactions were vacuum-filtered through Whatman GF/C filters. Filters were washed four times with 2 mL aliquots of 100% ethanol, mixed with scintillation fluid (10 mL) and then counted in a Beckman LS3801 scintillation counter.
(§2) For inhibition studies, assays were run as described above, except putative inhibitors were added at the concentrations indicated. IC₅₀ values were determined with both farnesyl-protein transferase substrates at their KM concentrations.
Farnesyl-protein transferase was prepared from bovine brain. All purification steps were performed at 4°C. Cerebral lobes from bovine brains were homogenized in lysis buffer containing 50 mM. Tris-Cl, pH 8.0, 1 mM EGTA, 1 mM MgCl₂, 5 mM dithiothreitol, 10 µg/mL aprotinin, 0.5 mM phenylmethyl sulfonyl fluoride (PMSF), 2 µg/mL anitpain and 2 µg/mL leupeptin. […]

[2] = test system: partially pure bovine brain farnesyl-protein transferase; test: Tetrapeptides tested as farnesylation substrates with [3H]FPP (TLC / autoradiography); assay type: biochemical; details: peptide 200 µM, 0.5 µM [3H]-FPP, 30 minutes at 30°C
Excerpt: (§3) When a peptide was used as the acceptor substrate, there were two changes to the assay: (1) Ras protein was excluded and, (2) the reactions were stopped by the addition of one tenth volume of 0.5 M EDTA. A portion of the reaction mixture was spotted onto a TLC plate (silica gel 60 thin layer chromatography plates (20 cm x 20 cm, 0.25 mm layer thickness) [formula] were from E. Merck (Darrnstadt)) and eluted with either ethyl acetate:pyridine:acetic acid:water (10:5:1:3) or n-propanol:water (7:3) elution systems. After drying under vacuum, the plates were sprayed with En³Hance and exposed to X-ray film at -70°C.
CAAX tetrapeptides and other tetrapeptides including Cys-Xaa¹-Xaa²-Xaa³ were tested as farnesylation substrates using [³H]FPP and partially pure bovine brain farnesyl-protein transferase.
The indicated peptides at 200 µM were incubated with partially pure bovine farnesyl-protein transferase and 0.5 µM [3H]-FPP for 30 minutes at 30°C. Autoradiographic exposure time was overnight (15-20 hours).

[3] = target: T1, Farnesyl-protein transferase from bovine brain (partially purified) (Bos taurus, UniProt P29702+P49355); test: Inhibition of Ras farnesylation in vitro by tetrapeptides; assay type: biochemical
T1 construct: Farnesyl-protein transferase was prepared from bovine brain; from tissue; host or cells: bovine brain (cerebral lobes); Ras substrate expressed in E. coli
Description: as §1, §2
Farnesyl-protein transferase was prepared from bovine brain. All purification steps were performed at 4°C. Cerebral lobes from bovine brains were homogenized in lysis buffer containing 50 mM. Tris-Cl, pH 8.0, 1 mM EGTA, 1 mM MgCl₂, 5 mM dithiothreitol, 10 µg/mL aprotinin, 0.5 mM phenylmethyl sulfonyl fluoride (PMSF), 2 µg/mL anitpain and 2 µg/mL leupeptin. Cellular debris and membranes were removed by centrifugation (10,000 g for 20 minutes followed by 100,000 g for 30 minutes). The supernatant was loaded directly onto a column (30 cm x 20 cm²) [formula] of DEAE-Sephacel that had been equilibrated with lysis buffer. The column was washed with the same buffer and proteins were eluted with a linear gradient of NaCL (0-500 mM, 1 L + 1 L) [formula] in the same buffer. Fractions (20 mL) were collected and those containing farnesyl-protein transferase activity were pooled. Each pool was then applied to an ω-Aminooctyl agarose column (30 cm x 4.9 cm²) [formula] and eluted with a linear gradient of NaCl (0-500 mM, 500 mL + 500 mL) [formula] in lysis buffer. Fractions containing farnesylprotein transferase were pooled. For most assays further partial purifiation was achieved by HPLC using a Mono Q H.R. 10/10 column and eluting farnesyl-protein transferase activity with a 0-0.3 M NaCl gradient over 85 minutes at 2 ml/min.
Farnesyl-protein transferase from bovine brain was chromatographed on DEAE-Sephacel (Pharmacia, 0-0.8 M NaCl gradient elution), N-octyl agarose (Sigma, 0-0.6 M NaCl gradient elution), and a Mono Q HPLC column (Pharmacia, 0.0.3M NaCl gradient). […] Data presented in the Table 2 are the average of 2-5 determinations. Single capital letter amino acid abbreviations are used above.

[4] = test system: farnesyl-protein transferase; test: Mechanism of inhibition using homogenous, pure farnesyl-protein transferase; assay type: biochemical, bovine
Description: To prepare pure enzyme, the […], […], was covalently bound to Affigel-10 under anhydrous conditions as described by the manufacture (15 µmol peptide per 1 mL of Affigel-10). Unreacted resin was treated with ethanolamine. After multiple passes of ω-aminooctyl-agarose-column-purified protein over the peptide column, the column was washed and eluted as described by Reiss, et al., (1990) ibid, to recover farnesyl-protein transferase activity.
To further verify that Cys-Xaa¹-Xaa²-Xaa³ were interacting with the active site of farnesyl-protein transfer, CIFM (SEQ ID NO: 2) was evaluated for its mechanism of inhibition using homogenous, pure farnesyl-protein transferase.

[5] = test system: farnesyl-protein transferase; test: Tetrapeptides tested as farnesylation substrates ([3H]FPP, TLC and autoradiography); assay type: biochemical; details: [³H]FPP, partially pure bovine brain farnesyl-protein transferase, TLC, autoradiography
Excerpt: as §3
CAAX tetrapeptides and other tetrapeptides including Cys-Xaa¹-Xaa²-Xaa³ were tested as farnesylation substrates using [³H]FPP and partially pure bovine brain farnesyl-protein transferase. […] Thin layer chromatography (TLC) conditions were developed which resolved the substrates farnesyl diphosphate (Rf = 0.06) [formula] and CVLS (Rf = 0.28) [formula] and product S-farnesyl-CVLS (Rf = 0.58) [formula] . These Rf values reflect TLC conditions using ethylacetate: pyridine:acetic acid:water (10:5:1:3) as the elutent. […] Control peptides having a Cys to Ser substitution were not substrates. […]

[6] = test system: farnesyl-protein transferase; details: earlier findings (Schaber et al., ibid); cited from earlier work
[7] = Ras-CVLS at 3.5 µM, 0.25 µM [3H]FPP (both substrates at KM), average of 2-5 determinations, read-out: IC50

## CC(C)=CCC/C(C)=C/CC/C(C)=C/CO[P@@](=O)(O)OP(=O)(O)O (stereo in doubt) [FPP, farnesyl diphosphate]
[1]
  Km: 0.25 µM

## CC[C@H](C)[C@H](NC(=O)[C@H](C)NC(=O)[C@@H](N)CS)C(=O)N[C@@H](CCSC)C(=O)O [CAIM] (H-CAIM-OH)
[2]
  Farnesylation Substrate: + (+ > 90% [3H] farnesyl diphosphate converted to [3H] farnesyl tetrapeptide)
[3]; [7]
  IC50: 200 nM

## CC[C@H](C)[C@H](NC(=O)[C@H](C)NC(=O)[C@@H](N)CS)C(=O)N[C@@H](CO)C(=O)O [CAIS] (H-CAIS-OH)
[2]
  Farnesylation Substrate: + (+ > 90% [3H] farnesyl diphosphate converted to [3H] farnesyl tetrapeptide)
[3]; [7]
  IC50: 1000 nM

## CC[C@H](C)[C@H](NC(=O)[C@@H](N)CS)C(=O)N[C@@H](Cc1ccc(F)cc1)C(=O)N[C@@H](CCSC)C(=O)O [CI(p-fluoro-F)M] (H-CI[Phe(4-F)]M-OH)
[2]
  Farnesylation Substrate: - (- < 1% conversion)
[3]; [7]
  IC50: 10 nM

## CC[C@H](C)[C@H](NC(=O)[C@@H](N)CS)C(=O)N[C@@H](Cc1ccccc1)C(=O)N[C@@H](CCSC)C(=O)O [CIFM, Cys-Ile-Phe-Met] (H-CIFM-OH)
[4]
  mechanism of inhibition with respect to Ras protein substrate: competitive inhibitor
  mechanism of inhibition with respect to farnesyl diphosphate: not a competitive inhibitor
[2]
  Farnesylation Substrate: - (- < 1% conversion)
[3]; [7]
  IC50: 10 nM
[5]
  farnesylation substrate activity: do not serve as effective substrates

## CC[C@H](C)[C@H](NC(=O)[C@@H](N)CS)C(=O)N[C@@H](Cc1ccccc1)C(=O)N[C@@H](CCC(N)=O)C(=O)O [CIFQ, Cys-Ile-Phe-Gln] (H-CIFQ-OH)
[2]
  Farnesylation Substrate: - (- < 1% conversion)
[3]; [7]
  IC50: 23 nM

## CSCC[C@H](NC(=O)[C@H](Cc1ccccc1)NC(=O)[C@@H](NC(=O)[C@@H](N)CS)C(C)C)C(=O)O [CVFM, Cys-Val-Phe-Met]
[2]
  Farnesylation Substrate: - (- < 1% conversion)

## CC[C@H](C)[C@H](NC(=O)[C@@H](NC(=O)[C@@H](N)CS)C(C)C)C(=O)N[C@@H](CCSC)C(=O)O [CVIM] (H-CVIM-OH)
[2]
  Farnesylation Substrate: + (+ > 90% [3H] farnesyl diphosphate converted to [3H] farnesyl tetrapeptide)
[3]
  IC50: 100 nM

## CC[C@H](C)[C@H](NC(=O)[C@H](Cc1ccc(O)cc1)NC(=O)[C@@H](N)CS)C(=O)N[C@@H](CCSC)C(=O)O [CYIM] (H-CYIM-OH)
[2]
  Farnesylation Substrate: + (+ > 90% [3H] farnesyl diphosphate converted to [3H] farnesyl tetrapeptide)
[3]; [7]
  IC50: 100 nM

## CC(C)C[C@H](NC(=O)[C@@H](NC(=O)[C@@H](N)CO)C(C)C)C(=O)N[C@@H](CO)C(=O)O [SVLS] (H-SVLS-OH)
[2]
  Farnesylation Substrate: - (- < 1% conversion)

## SSGCVLS [heptapeptide SSGCVLS, earlier found to serve as a substrate for isoprenylation]
[6]
  substrate for isoprenylation: served as a substrate for isoprenylation
